Measured values published in US20240189309A1, “TYK2 INHIBITORS AND USES THEREOF” (Sudo Biosciences Limited, priority 2021, published 2024).

Legend:
Type in all cases: cell-based
[1] = system: HEK-Blue™ IL-2 reporter cells; assay: HEK-Blue IL-2 reporter assay (SEAP) for determining selectivity; details: HEK-Blue IL-2 cells, 4 ng/mL human recombinant IL-2, SEAP reporter
Description: (§1) Example B-3: HEK-Blue™ IL-2 and IFNγ Reporter Assays for Determining Selectivity
(§2) HEK-Blue™ IL-2 and IFNγ reporter cells with a stably-integrated cytokine receptor and STAT5 or STAT1 express STAT-inducible secreted embryonic alkaline phosphatase (SEAP) reporter gene upon cytokine stimulation. These cells were plated in DMEM (Gibco) containing 10% heat-inactivated FBS (Gibco) and 100 U/mL PenStrep (Gibco) at 37° C. under 5% CO2 conditions for 20-22 hours. The cells were then pre-treated with serially diluted test compounds for 60 min prior to stimulation with either 4 ng/mL human recombinant IL-2 (Miltenyl Biotech) or 50 ng/mL human recombinant IFNγ (InvivoGen) for 24 hours. SEAP induction was measured using the QUANTI-Blue™ Solution (InvivoGen) according to the manufacturer's instructions.

[2] = system: HEK-Blue™ IFNγ reporter cells; assay: HEK-Blue IFNγ reporter assay (SEAP) for determining selectivity; details: 50 ng/mL human recombinant IFNγ, read-out: IFN-γ (SEAP selectivity, IC50)
Description: as §1, §2

TYK2 Pseudokinase (JH2) [3] = target: T1, TYK2 Pseudokinase (JH2) (Homo sapiens, UniProt P29597); assay: HEK-Blue IL-23 reporter assay (SEAP) for profiling TYK2 pseudokinase (JH2) inhibition; parameters: HEK-Blue™ IL-23 and IFNα/β cells with a stably-integrated cytokine receptor and STAT3 or STAT1; endogenous in cells; host or cells: HEK-Blue IL-23 and HEK-Blue IFNα/β cells; details: HEK-Blue IL-23 cells, 10 ng/mL human recombinant IL-23, SEAP reporter; read-out: IL23 (TYK2 inhibitory activity, IC50)
T1 sequence (P29597 whole entry): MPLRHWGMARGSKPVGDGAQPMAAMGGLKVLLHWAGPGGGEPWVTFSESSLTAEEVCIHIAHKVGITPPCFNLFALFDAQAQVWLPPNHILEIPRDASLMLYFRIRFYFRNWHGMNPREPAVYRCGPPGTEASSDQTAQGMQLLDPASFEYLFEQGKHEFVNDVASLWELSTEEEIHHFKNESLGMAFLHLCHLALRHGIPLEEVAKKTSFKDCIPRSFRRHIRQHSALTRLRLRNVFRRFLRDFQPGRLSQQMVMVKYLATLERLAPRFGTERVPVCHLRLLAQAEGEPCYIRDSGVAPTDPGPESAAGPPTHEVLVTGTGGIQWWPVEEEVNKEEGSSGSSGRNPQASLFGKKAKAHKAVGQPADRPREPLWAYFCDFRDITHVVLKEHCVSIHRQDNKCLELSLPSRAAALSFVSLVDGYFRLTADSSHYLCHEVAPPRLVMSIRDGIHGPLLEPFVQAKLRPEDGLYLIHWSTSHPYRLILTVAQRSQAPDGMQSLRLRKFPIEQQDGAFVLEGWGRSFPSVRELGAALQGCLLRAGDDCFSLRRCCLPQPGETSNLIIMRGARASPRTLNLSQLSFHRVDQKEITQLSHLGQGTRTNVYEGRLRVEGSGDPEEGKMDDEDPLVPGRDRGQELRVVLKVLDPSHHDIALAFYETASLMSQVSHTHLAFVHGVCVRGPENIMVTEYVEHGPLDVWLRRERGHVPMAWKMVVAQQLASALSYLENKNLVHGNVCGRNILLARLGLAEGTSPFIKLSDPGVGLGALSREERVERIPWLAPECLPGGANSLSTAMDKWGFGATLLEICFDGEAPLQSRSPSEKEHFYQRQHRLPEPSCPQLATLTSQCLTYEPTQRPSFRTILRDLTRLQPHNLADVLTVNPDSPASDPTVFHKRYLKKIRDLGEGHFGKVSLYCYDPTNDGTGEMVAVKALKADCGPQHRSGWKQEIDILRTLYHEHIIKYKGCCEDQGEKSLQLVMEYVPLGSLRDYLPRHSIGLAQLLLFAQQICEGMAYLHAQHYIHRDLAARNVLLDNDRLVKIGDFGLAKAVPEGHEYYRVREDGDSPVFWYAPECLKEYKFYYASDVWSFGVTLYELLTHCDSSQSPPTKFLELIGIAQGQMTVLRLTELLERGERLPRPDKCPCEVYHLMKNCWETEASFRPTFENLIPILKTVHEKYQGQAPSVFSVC
Description: (§3) Example B-1: HEK-Blue™ IL-23 and IFNα/β Reporter Assays for Profiling TYK2 Pseudokinase (JH2) Inhibition
(§4) HEK-Blue™ IL-23 and IFNα/β cells with a stably-integrated cytokine receptor and STAT3 or STAT1 express STAT-inducible secreted embryonic alkaline phosphatase (SEAP) reporter gene upon cytokine stimulation. These cells are plated in DMEM (Gibco) containing 10% heat-inactivated FBS (Gibco) and 100 U/mL PenStrep (Gibco) at 37° C. under 5% CO2 conditions for 20-22 hours. The cells are then pretreated with serially diluted test compounds for 60 min prior to stimulation with either 10 ng/mL human recombinant IL-23 (Miltenyl Biotech) or 1 ng/mL human recombinant IFNα (InvivoGen) for 22-24 hours for IL-23 or 16-18 h for IFNα. SEAP induction is measured using the QUANTI Blue™ Solution (InvivoGen) according to the manufacturer's instructions.

TYK2 Pseudokinase (JH2) [4] = target: T1, TYK2 Pseudokinase (JH2); assay: HEK-Blue IFNα/β reporter assay (SEAP) for profiling TYK2 pseudokinase (JH2) inhibition; details: HEK-Blue IFNα/β cells, 1 ng/mL human recombinant IFNα, read-out: IFNα (TYK2 inhibitory activity, IC50)
Description: as §3, §4

| IC50 (TYK2 Pseudokinase (JH2) [3]) [nM] | IC50 (TYK2 Pseudokinase (JH2) [4]) [nM] | SMILES | IC50 [1] [nM] | IC50 [2] [nM] |
| --- | --- | --- | --- | --- |
| 30 to 300 | – | CNC(=O)c1nnc(NC(=O)C2CC2)cc1Nc1cccc2c1OCc1c-2noc1C [Compound 3, 6-(cyclopropanecarboxamido)-N-methyl-4-((3-methyl-4H-chromeno[4,3-c]isoxazol-6-yl)amino)pyridazine-3-carboxamide] | > 1000 | > 1000 |
| < 30 | 30 to 300 | [2H]C([2H])([2H])NC(=O)c1cnc(NC(=O)C2CC2)cc1Nc1nccc2c1N(C)Cc1nn(C)c(=O)n1-2 [Compound 21, 6-(cyclopropanecarboxamido)-4-((2,5-dimethyl-1-oxo-1,2,4,5-tetrahydropyrido[3,4-e][1,2,4]triazolo[4,3-a]pyrazin-6-yl)amino)-N-(methyl-d3)nicotinamide] | > 1000 | 300 to 1000 |
| < 30 | 30 to 300 | [2H]C([2H])([2H])NC(=O)c1nnc(NC(=O)C2CC2)cc1Nc1cccc2c1N(C)CC1CCC(=O)N21 (centres unmarked) [Compound 37, 6-(cyclopropanecarboxamido)-N-(methyl-d3)-4-((5-methyl-1-oxo-1,2,3,3a,4,5-hexahydropyrrolo[1,2-a]quinoxalin-6-yl)amino)pyridazine-3-carboxamide] | > 1000 | 300 to 1000 |
| < 30 | < 30 | [2H]C([2H])([2H])NC(=O)c1nnc(NC(=O)C2CC2)cc1Nc1nccc2c1N(C)Cc1sc(C)nc1-2 [Compound 36, 6-(cyclopropanecarboxamido)-4-((2,5-dimethyl-4,5-dihydrothiazolo[5,4-c][1,7]naphthyridin-6-yl)amino)-N-(methyl-d3)pyridazine-3-carboxamide] | 300 to 1000 | 30 to 300 |
| < 30 | < 30 | [2H]C([2H])([2H])NC(=O)c1nnc(NC(=O)C2CC2)cc1Nc1cccc2c1N(C)Cc1sc(C)nc1-2 [Compound 35, 6-(cyclopropanecarboxamido)-4-((2,5-dimethyl-4,5-dihydrothiazolo[5,4-c]quinolin-6-yl)amino)-N-(methyl-d3)pyridazine-3-carboxamide] | > 1000 | – |
| 300 to 1000 | > 1000 | CNC(=O)c1nnc(Nc2ccc(F)cn2)cc1Nc1cccc2c1OCc1c-2noc1C [Compound 1, 6-((5-fluoropyridin-2-yl)amino)-N-methyl-4-((3-methyl-4H-chromeno[4,3-c]isoxazol-6-yl)amino)pyridazine-3-carboxamide] | – | – |
| 300 to 1000 | > 1000 | CNC(=O)c1nnc(NC(=O)C2CC2)cc1Nc1cccc2c1OCn1nnnc1-2 [Compound 5, 4-((5H-benzo[e]tetrazolo[1,5-c][1,3]oxazin-7-yl)amino)-6-(cyclopropanecarboxamido)-N-methylpyridazine-3-carboxamide] | – | – |
| > 1000 | > 1000 | [2H]C([2H])([2H])NC(=O)c1cnc(NC(=O)C2CC2)cc1Nc1cncc2c1N(C)Cc1nn(C)c(=O)n1-2 [Compound 13, 6-(cyclopropanecarboxamido)-4-((2,5-dimethyl-1-oxo-1,2,4,5-tetrahydropyrido[4,3-e][1,2,4]triazolo[4,3-a]pyrazin-6-yl)amino)-N-(methyl-d3)nicotinamide] | – | – |
| < 30 | – | [2H]C([2H])([2H])NC(=O)c1nnc(NC(=O)C2CC2)cc1Nc1cccc2c1N(C)Cc1nc(C)oc1-2 [Compound 22, 6-(cyclopropanecarboxamido)-4-((2,5-dimethyl-4,5-dihydrooxazolo[4,5-c]quinolin-6-yl)amino)-N-(methyl-d3)pyridazine-3-carboxamide] | 300 to 1000 | – |
| 300 to 1000 | > 1000 | CNC(=O)c1nnc(NC(=O)C2CC2)cc1Nc1cccc2c1OCc1nn(C)c(=O)n1-2 [Compound 6, 6-(cyclopropanecarboxamido)-N-methyl-4-((2-methyl-1-oxo-2,4-dihydro-1H-benzo[b][1,2,4]triazolo[4,3-d][1,4]oxazin-6-yl)amino)pyridazine-3-carboxamide] | – | – |
| < 30 | 30 to 300 | [2H]C([2H])([2H])NC(=O)c1cnc(NC(=O)C2CC2)cc1Nc1cccc2c1N(C)Cc1nc(C)oc1-2 [Compound 23, 6-(cyclopropanecarboxamido)-4-((2,5-dimethyl-4,5-dihydrooxazolo[4,5-c]quinolin-6-yl)amino)-N-(methyl-d3)nicotinamide] | > 1000 | 30 to 300 |
| 30 to 300 | 300 to 1000 | [2H]C([2H])([2H])NC(=O)c1nnc(NC(=O)C2CC2)cc1Nc1cccc2c1N(C)C[C@@H]1CCC(=O)N21 [Compound 39, (S)-6-(cyclopropanecarboxamido)-N-(methyl-d3)-4-((5-methyl-1-oxo-1,2,3,3a,4,5-hexahydropyrrolo[1,2-a]quinoxalin-6-yl)amino)pyridazine-3-carboxamide] | – | – |
| < 30 | 30 to 300 | [2H]C([2H])([2H])NC(=O)c1nnc(NC(=O)C2CC2)cc1Nc1cccc2c1N(C)C[C@H]1CCC(=O)N21 [Compound 38, (R)-6-(cyclopropanecarboxamido)-N-(methyl-d3)-4-((5-methyl-1-oxo-1,2,3,3a,4,5-hexahydropyrrolo[1,2-a]quinoxalin-6-yl)amino)pyridazine-3-carboxamide] | 300 to 1000 | 30 to 300 |
| 300 to 1000 | > 1000 | CNC(=O)c1nnc(Nc2ccc(F)cn2)cc1Nc1cccc2c1OCc1nnnn1-2 [Compound 4, 4-((4H-benzo[b]tetrazolo[1,5-d][1,4]oxazin-6-yl)amino)-6-((5-fluoropyridin-2-yl)amino)-N-methylpyridazine-3-carboxamide] | – | – |
| > 1000 | > 1000 | CNC(=O)c1nnc(Nc2ccc(F)cn2)cc1Nc1cccc2c1OCc1nn(C)c(=O)n1-2 [Compound 7, 6-((5-fluoropyridin-2-yl)amino)-N-methyl-4-((2-methyl-1-oxo-2,4-dihydro-1H-benzo[b][1,2,4]triazolo[4,3-d][1,4]oxazin-6-yl)amino)pyridazine-3-carboxamide] | – | – |
| > 1000 | 300 to 1000 | [2H]C([2H])([2H])NC(=O)c1nnc(NC(=O)C2COC2)cc1Nc1cccc2c1N(C)Cc1nn(C)c(=O)n1-2 [Compound 19, 4-((2,5-dimethyl-1-oxo-1,2,4,5-tetrahydro-[1,2,4]triazolo[4,3-a]quinoxalin-6-yl)amino)-N-(methyl-d3)-6-(oxetane-3-carboxamido)pyridazine-3-carboxamide] | – | – |
